Data published in patent US20230219978A1, “COMPOUND HAVING MACROCYCLIC STRUCTURE AND USE THEREOF” (SCINNOHUB PHARMACEUTICAL CO., LTD, priority 2020, published 2023).

Assays:
Type in all cases: biochemical
RET wt = target: T1, RET wt (Homo sapiens, UniProt P07949); test: In vitro kinase activity assay (mobility shift assay), RET wild type; conditions: ATP 16 μM, reaction time 60 min
T1 construct: purchased Carna 08-159
Description: (§1) The IC50 (half inhibitory concentration) values of the compounds were used as an indicator to evaluate the inhibitory effect of the compound on RET wild-type, RET mutant, TRKa, SRC, BTK and/or mutated BTK kinase.
(§2) Using the method of Mobility shift assay, the compounds were tested for inhibitory activity against the following kinases: RET wild type, RET mutant, TRKa, SRC, BTK and/or mutated BTK. The initial concentration of the test compound was 1000 nM, 3-fold dilution, 10 concentrations, detected in a well for each concentration.
(§3) 20 mM hydroxyethylpiperazineethanesulfonic acid (Hepes) (pH 7.5) buffer, 10 mM MgCl2, 1 mM ethylene glycol bis(aminoethyl ether)tetraacetic acid (EGTA), 0.02% polyoxyethylene lauryl ether (Brij35), 0.02 mg/ml […] (BSA), 0.1 mM Na3VO4, 2 mM dithiothreitol (DTT), 1% DMSO.
(§4) The test compounds were dissolved in 100% dimethyl sulfoxide (DMSO) system, and prepared as 10 mM for use, and stored in a nitrogen cabinet away from light.
(§5) • (1) Preparing 1× kinase reaction buffer. • (2) Preparation of compound concentration gradient: the initial concentration of the compounds was 1000 nM, which was diluted as 100-fold final concentration of solution in 100% dimethyl sulfoxide (DMSO) in a 384-well plate. The compound was accurately 3-fold diluted with the kinase buffer solution, 10 concentrations in total, and the final concentration was 0.0508 nM. The 100-fold final concentration of solution in 100% dimethyl sulfoxide (DMSO) was obtained by dilution in 384 source plate. The liquid separator Echo 550 was used to transfer 250 nl of 100-fold final concentration of compound to the target 384 well plate. 250 nl of DMSO was added to the positive and negative control wells. • (3) 2.5-fold final concentration of kinase solution was prepared by the 1× kinase buffer. • (4) 10 4, of 2.5-fold final concentration of kinase solution was added to the compound well and the positive control well, respectively; 10 4, of 1× kinase buffer was added to the negative control well. • (5) After centrifuging at 1000 rpm for 30 second, the reaction plate was shaken and mixed, followed by incubation at room temperature for 10 min. • (6) a mixed solution of 25/15-fold final concentration of adenosine triphosphate (ATP) and kinase substrate was prepared by 1× kinase buffer. • (7) The mixed solution (15 μL) of 25/15-fold final concentration of adenosine triphosphate (ATP) and substrate was added to initiate the reaction. • (8) 384-well plate was centrifuged at 1000 rpm for 30 second, shaken and mixed well, and then incubated at room temperature for 30-240 min. • (9) After stopping the kinase reaction, the plate was centrifugated at 1000 rpm for 30 second, shaken and mixed well. • (10)The conversion rate was read with Caliper EZ Reader.
(§6) wherein Conversion%_sample is the conversion rate reading of the sample; Conversion%_min: the mean value of negative control wells, representing the conversion rate reading of wells without enzymes; Conversion%_max: the mean value of positive control wells, representing the conversion rate reading of wells without compound inhibition.
(§7) The log value of concentration was taken as the X axis, and the percentage inhibition rate was taken as the Y axis. Graphpad 6.0 analysis software was used to fit the dose-response curve, so as to obtain the IC50 value of each compound on the enzyme activity

RET G810R = target: T2, RET G810R (Homo sapiens, UniProt P07949, G810R); test: In vitro kinase activity assay (mobility shift assay), RET G810R; conditions: ATP 201 μM, reaction time 4 h
T2 construct: purchased Proqinase 1724-0000-1
T2 sequence (P07949 29-1114 G810R): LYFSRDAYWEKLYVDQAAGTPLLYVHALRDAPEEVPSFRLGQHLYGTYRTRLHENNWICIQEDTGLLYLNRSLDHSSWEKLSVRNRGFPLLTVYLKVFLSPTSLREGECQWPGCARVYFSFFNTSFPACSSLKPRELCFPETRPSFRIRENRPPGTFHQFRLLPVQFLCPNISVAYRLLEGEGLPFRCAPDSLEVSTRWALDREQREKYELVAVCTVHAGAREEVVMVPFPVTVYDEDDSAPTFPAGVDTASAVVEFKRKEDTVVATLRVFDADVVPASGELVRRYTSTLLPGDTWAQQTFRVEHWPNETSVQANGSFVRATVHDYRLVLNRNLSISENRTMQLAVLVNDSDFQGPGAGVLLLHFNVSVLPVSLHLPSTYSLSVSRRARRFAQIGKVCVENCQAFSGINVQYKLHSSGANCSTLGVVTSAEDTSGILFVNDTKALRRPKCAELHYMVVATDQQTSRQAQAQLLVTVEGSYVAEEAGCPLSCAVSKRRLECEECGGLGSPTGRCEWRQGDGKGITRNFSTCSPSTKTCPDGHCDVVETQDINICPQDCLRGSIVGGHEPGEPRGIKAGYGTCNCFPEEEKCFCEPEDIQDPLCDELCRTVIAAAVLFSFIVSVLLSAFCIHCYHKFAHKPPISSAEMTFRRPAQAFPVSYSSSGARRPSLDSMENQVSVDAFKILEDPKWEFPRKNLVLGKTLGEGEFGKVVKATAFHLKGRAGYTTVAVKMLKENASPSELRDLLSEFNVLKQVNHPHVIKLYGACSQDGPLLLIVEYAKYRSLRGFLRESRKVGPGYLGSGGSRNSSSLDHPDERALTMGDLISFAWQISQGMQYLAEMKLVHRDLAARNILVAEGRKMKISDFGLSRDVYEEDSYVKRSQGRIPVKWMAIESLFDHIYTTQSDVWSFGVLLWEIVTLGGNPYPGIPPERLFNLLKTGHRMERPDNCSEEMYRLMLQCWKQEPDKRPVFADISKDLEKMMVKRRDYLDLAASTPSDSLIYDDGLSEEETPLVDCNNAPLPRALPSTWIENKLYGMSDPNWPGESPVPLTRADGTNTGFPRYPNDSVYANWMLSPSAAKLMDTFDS
Description: as §1, §2, §3, §4, §5, §6, §7

RET V804M = target: T3, RET V804M (Homo sapiens, UniProt P07949, V804M); test: In vitro kinase activity assay (mobility shift assay), RET V804M; conditions: ATP 5.4 μM, reaction time 60 min
T3 construct: purchased signalchem R02-12GG
T3 sequence (P07949 29-1114 V804M): as the sequence (P07949 29-1114 G810R) above, with V776M, R782G counted along it
Description: as §1, §2, §3, §4, §5, §6, §7

T1 sequence (P07949 29-1114): as the sequence (P07949 29-1114 G810R) above, with R782G counted along it

Row | IC50 (RET wt) [nM] | IC50 (RET G810R) [nM] | IC50 (RET V804M) [nM] | SMILES
1 | 5.4 | 377 |  | C[C@H]1CNC(=O)c2cnn3cc(-c4ccc5[nH]ccc5c4Cl)c(nc23)NCc2cc(F)cnc2O1 [Compound 34, (S, 1^3E, 1^4E)-1^6-(4-chloro-1H-indo1-5-yl)-4^5-fluoro-6-methyl-5-oxo-2,8-diaza-1(5,3)-pyrazolo[1,5-a]pyrimidin-4(3,2)-pyridinacyclononaphan-9-one]
2 | 1.9 | 197 |  | CNC(=O)Nc1ccc(-c2cn3ncc4c3nc2NCc2cc(F)cnc2O[C@@H](C)CNC4=O)c(Cl)c1 [Compound 35, 1-(3-chloro-4-((S, 1^3E, 1^4E)-4^5-fluoro-6-methyl-9-oxo-5-oxo-2,8-diaza-1(5,3)-pyrazolo[1,5-a]pyrimidin-4(3,2)-pyridinacyclononaphan-1^6-yl)phenyl)-3-methylurea]
3 | 27 | > 1000 |  | C[C@H]1CNC(=O)c2cnn3cc(-c4ccc(N)cc4)c(nc23)NCc2cc(F)cnc2O1 [Compound 36, (S, 1^3E, 1^4E)-1^6-(4-aminophenyl)-4^5-fluoro-6-methyl-5-oxo-2,8-diaza-1(5,3)-pyrazolo[1,5-a]pyrimidin-4(3,2)-pyridinacyclononaphan-9-one]
4 | 95 | > 1000 |  | C[C@H]1CNC(=O)c2cnn3cc(-c4cn[nH]c4)c(nc23)NCc2cc(F)cnc2O1 [Compound 37, (S, 1^3E, 1^4E)-4^5-fluoro-6-methyl-1^6-(1H-pyrazol-4-yl)-5-oxa-2,8-diaza-1(5,3)-pyrazolo[1,5-a]pyrimidin-4(3,2)-pyridinacyclononaphan-9-one]
5 | 3 | 376 |  | CNc1ccc(-c2cn3ncc4c3nc2NCc2cc(F)cnc2O[C@@H](C)CNC4=O)c(Cl)c1 [Compound 39, (S, 1^3E, 1^4E)-1^6-(4-methylamino-2-chlorophenyl)-4^5-fluoro-6-methyl-5-oxa-2,8-diaza-1(5,3)-pyrazolo[1,5-a]pyrimidina-4(3,2)-pyridinacyclononaphan-9-one]
6 | > 1000 | > 1000 | > 1000 | C[C@H]1CNC(=O)c2cnn3cc(-c4ccc(Nc5ncco5)cc4)c(nc23)NCc2cc(F)cnc2O1 [Compound 42, (S, 1^3E, 1^4E)-4^5-fluoro-6-methyl-1^6-(4-(oxazol-2-amino)phenyl)-5-oxa-2,8-diaza-1(5,3)-pyrazolo[1,5-a] pyrimidin-4(3,2)-pyridinacyclononaphan-9-one]
7 | 286 | > 1000 |  | C[C@H]1CNC(=O)c2cnn3cc(-c4ccc(NS(C)(=O)=O)cc4Cl)c(nc23)NCc2cc(F)cnc2O1 [Compound 44]
8 | 5.1 | 96.9 |  | C[C@H]1CNC(=O)c2cnn3cc(-c4ccc(NC(=O)OCC5CC5)cc4Cl)c(nc23)NCc2cc(F)cnc2O1 [Compound 46, cyclopropylmethyl (3-chloro-4-((S, 1^3E, 1^4E)-4^5-fluoro-6-methyl-9-oxo-5-oxadiaza-2,8-1(5,3)-pyrazolo[1,5-a]pyrimidin-4(3,2)-pyridinacyclononaphan-1^6-yl)phenyl)carbamate]
9 | 26 | > 1000 | > 1000 | C[C@H]1CNC(=O)c2cnn3cc(-c4ccccc4)c(nc23)NCc2cc(Cl)cnc2O1 [Compound 47, (S, 1^3E, 1^4E)-4^5-chloro-6-methyl-1^6-phenyl-5-oxa-2,8-diaza-1(5,3)-pyrazolo[1,5-a]pyrimidina-4(3,2)-pyridinacyclononaphan-9-one]
10 | > 1000 | > 1000 | > 1000 | C[C@H]1CNC(=O)c2cnn3cc(-c4ccccc4)c(nc23)NCc2cc(Nc3ccccn3)cnc2O1 [Compound 48, (S, 1^3E, 1^4E)-6-methyl-1^6-phenyl-4^5-(pyridin-2-ylamino)-5-oxa-2,8-diaza-1(5,3)-pyrazolo[1,5-a]pyrimidina-4(3,2)-pyridinacyclononaphan-9-one]
11 | 5.4 | 588 |  | C[C@H]1CNC(=O)c2cnn3c(N)c(-c4ccc5nc[nH]c5c4)c(nc23)NCc2cc(F)cnc2O1 [Compound 52, (S, 1^3E, 1^4E)-1^7-amino-1 ^6-(1H-benzo [d]imidazol-6-yl)-4^5-fluoro-6-methyl-5-oxo-2,8-diaza-1(5,3)-pyrazolo[1,5-a]pyrimidin-4(3,2)-pyridinacyclononaphan-9-one]
12 | 1.1 | 84.3 |  | CNC(=O)Nc1ccc(-c2c3nc4c(cnn4c2N)C(=O)NC[C@H](C)Oc2ncc(F)cc2CN3)cc1 [Example 55, 1-(4-((S, 1^3E, 1^4E)-1^7-amino-4^5-fluoro-6-methyl-9-oxo-5-oxo-2,8-diaza-1(5,3)-pyrazolo[1,5-a]pyrimidin-4(3,2)-pyridinacyclononaphan-1^6-yl)phenyl)-3-methylurea]
13 | 47 | > 1000 |  | CC(C)Nc1ccc(-c2c3nc4c(cnn4c2N)C(=O)NC[C@H](C)Oc2ncc(F)cc2CN3)cc1 [Example 57, (S, 1^3E, 1^4E)-1^7-amino-4^5-fluoro-1^6-(4-(isopropylamino)phenyl)-6-methyl-5-oxo-2,8-diaza-1(5,3)-pyrazolo[1,5-a]pyrimidin-4(3,2)-pyridinacyclononaphan-9-one]
14 | 3.4 | 155 |  | C[C@H]1CNC(=O)c2cnn3c(N)c(-c4ccc(N(C)C)cc4)c(nc23)NCc2cc(F)cnc2O1 [Example 58, (S, 1^3E, 1^4E)-1^7-amino-1^6-(4-(dimethylamino)phenyl)-4^5-fluoro-6-methyl-5-oxo-2,8-diaza-1(5,3)-pyrazolo[1,5-a]pyrimidin-4(3,2)-pyridinacyclononaphan-9-one]
15 | 2.4 | 130 | 38 | COc1ccc(-c2c3nc4c(cnn4c2N)C(=O)NC[C@H](C)Oc2ncc(F)cc2CN3)cc1 [Example 59, (S, 1^3E, 1^4E)-1^7-amino-4^5-fluoro-1^6-(4-methoxyphenyl)-6-methyl-5-oxo-2,8-diaza-1(5,3)-pyrazolo[1,5-a]pyrimidin-4(3,2)-pyridinacyclononaphan-9-one]
16 | 1 | 21.8 |  | CC(C)OC(=O)Nc1ccc(-c2c3nc4c(cnn4c2N)C(=O)NC[C@H](C)Oc2ncc(F)cc2CN3)cc1 [Example 61, iso-propyl (4-((S, 1^3E, 1^4E)-1^7-amino-4^5-fluoro-6-methyl-9-oxo-5-oxa-2,8-diaza-1(5,3)-pyrazolino[1,5-a]pyrimidin-4(3,2)-pyridinacyclononaphan-1^6-yl)-phenyl)carbamate]
17 | 0.26 | 15 | 0.94 | CCOC(=O)Nc1ccc(-c2c3nc4c(cnn4c2N)C(=O)NC[C@H](C)Oc2ncc(F)cc2CN3)cc1 [Example 62, ethyl (4-((S, 1^3E, 1^4E)-1^7-amino-4^5-fluoro-6-methyl-9-oxo-5-oxa-2,8-diaza-1(5,3)-pyrazolino [1,5-a]pyrimidin-4(3,2)-pyridinacyclononaphan-1^6-yl)-phenyl)carbamate]
18 | 1.19 | 35.7 | 3.58 | CCCOC(=O)Nc1ccc(-c2c3nc4c(cnn4c2N)C(=O)NC[C@H](C)Oc2ncc(F)cc2CN3)cc1 [Example 67, propyl (4-((S, 1^3E, 1^4E)-1^7-amino-4^5-fluoro-6-methyl-9-oxo-5-oxa-2,8-diaza-1(5,3)-pyrazolino [1,5-a]pyrimidin-4(3,2)-pyridinacyclononaphan-1^6-yl)-phenyl)carbamate]

Row | SMILES | IC50 (RET wt) [nM] | IC50 (RET G810R) [nM] | IC50 (RET V804M) [nM]
19 | CNC(=O)Nc1ccc(-c2cn3ncc4c3nc2NCc2cc(F)cnc2O[C@@H](C)CNC4=O)cc1 [Compound 32, 1-(4-((S, 1^3E, 1^4E)-4^5-fluoro-6-methyl-9-oxo-5-oxa-2,8-diaza-1(5,3)-pyrazolo[1,5-a]pyrimidin-4(3,2)-pyridinacyclononaphan-1^6-yl)phenyl)-3-methylurea] | 14.2 | 98.2 | 59
